In ChEMBL document CHEMBL1201862, “PubChem BioAssay data set” (2004):
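Step 1: Grow cells in 96-well plates. Step 2: Expose to compound for 48 hours at 5 concentrations. Step 3: Interpolate endpoints linearly; if unreached, use highest concentration. The concentration for 50% growth inhibition is given as GI50.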 Calls of active or inactive are those of the source. Rule as the data show it: active = GI50 up to about 1.1 µM and inactive = higher.

Key:
Test in all cases: inhibition of tumour cell growth, NCI panel, 48 h
SK-MEL-28 = system: SK-MEL-28
K562 = system: K562
SK-MEL-5 = system: SK-MEL-5
HOP-18 = system: HOP-18
HCC 2998 = system: HCC 2998
SNB-19 = system: SNB-19
MDA-MB-231 = system: MDA-MB-231
DLD-1 = system: DLD-1
HCT-15 = system: HCT-15
M19-MEL = system: M19-MEL
OVCAR-5 = system: OVCAR-5
T47D = system: T47D
MDA-MB-435 = system: MDA-MB-435
NCI-H522 = system: NCI-H522
A549 = system: A549
OVCAR-8 = system: OVCAR-8
TK-10 = system: TK-10
SR = system: SR
SN12C = system: SN12C
OVCAR-3 = system: OVCAR-3
LOX IMVI = system: LOX IMVI
RXF 393 = system: RXF 393
MCF7 = system: MCF7
HL-60 = system: HL-60
SF-539 = system: SF-539
SNB-78 = system: SNB-78
SF-295 = system: SF-295
CCRF-CEM = system: CCRF-CEM
NCI-H23 = system: NCI-H23
BT-549 = system: BT-549
M14 = system: M14
NCI-H226 = system: NCI-H226
MDA-N = system: MDA-N
UO-31 = system: UO-31
CAKI-1 = system: CAKI-1
EKVX = system: EKVX
XF498 = system: XF498
UACC-62 = system: UACC-62
OVCAR-4 = system: OVCAR-4
HOP-62 = system: HOP-62
LXFL 529 = system: LXFL 529
HT-29 = system: HT-29
HOP-92 = system: HOP-92
KM12 = system: KM12
Hs-578T = system: Hs-578T
SK-MEL-2 = system: SK-MEL-2
DMS-273 = system: DMS-273
SW-620 = system: SW-620
RPMI-8226 = system: RPMI-8226
ACHN = system: ACHN
Malme-3M = system: Malme-3M
MOLT-4 = system: MOLT-4
COLO 205 = system: COLO 205
PC-3 = system: PC-3
SK-OV-3 = system: SK-OV-3
SNB-75 = system: SNB-75
SF-268 = system: SF-268
U-251 = system: U-251
RXF 631 = system: RXF 631
786-0 = system: 786-0
UACC-257 = system: UACC-257
KM-20L2 = system: KM-20L2
IGROV-1 = system: IGROV-1
HCT-116 = system: HCT-116
NCI-H460 = system: NCI-H460
A498 = system: A498
DMS-114 = system: DMS-114

In the case of CN(C)C(=S)/N=c1\ssc(=S)n1Cc1ccco1, the GI50 (SK-MEL-28) is reported as 8.07 µM (inactive), the GI50 (K562) is reported as 0.348 µM (active) and the GI50 (SK-MEL-5) is reported as 1.22 µM (inactive). The GI50 (HOP-18) was 82.2 µM (inactive), the GI50 (HCC 2998) was 4.61 µM (inactive) and the GI50 (SNB-19) was 2.9 µM (inactive). For the same molecule, the GI50 (MDA-MB-231) was 10.4 µM (inactive), the GI50 (DLD-1) was 2.86 µM (inactive) and the GI50 (HCT-15) was 2.2 µM. For the same molecule, the GI50 (M19-MEL) was 2.16 µM (inactive), the GI50 (OVCAR-5) was 32 µM (inactive) and the GI50 (T47D) was 0.571 µM (active). The GI50 (MDA-MB-435) was 0.274 µM (active), the GI50 (NCI-H522) was 0.249 µM (active) and the GI50 (A549) was 1.98 µM (inactive). The GI50 (OVCAR-8) was 3.79 µM (inactive), the GI50 (TK-10) was 20.6 µM (inactive) and the GI50 (SR) was 1.97 µM (inactive). The GI50 (SN12C) was 4.21 µM (inactive), the GI50 (OVCAR-3) was 1.15 µM (inactive) and the GI50 (LOX IMVI) was 2.4 µM (inactive). For the same molecule, the GI50 (RXF 393) was 0.998 µM (active), the GI50 (MCF7) was 0.49 µM (active) and the GI50 (HL-60) was 0.379 µM (active). The GI50 (SF-539) was 1.95 µM (inactive), the GI50 (SNB-78) was 3.18 µM (inactive) and the GI50 (SF-295) was 2.1 µM (inactive). The GI50 (CCRF-CEM) was 0.975 µM (active), the GI50 (NCI-H23) was 2.38 µM (inactive) and the GI50 (BT-549) was 12.2 µM (inactive). For the same molecule, the GI50 (M14) was 2.15 µM (inactive), the GI50 (NCI-H226) was 12 µM (inactive) and the GI50 (MDA-N) was 0.22 µM (active). For the same molecule, the GI50 (UO-31) was 5.57 µM (inactive), the GI50 (CAKI-1) was 2.01 µM (inactive) and the GI50 (EKVX) was 6.9 µM (inactive). For the same molecule, the GI50 (XF498) was 4.39 µM (inactive), the GI50 (UACC-62) was 0.879 µM (active) and the GI50 (OVCAR-4) was 13.6 µM (inactive). The GI50 (HOP-62) was 2.56 µM (inactive), the GI50 (LXFL 529) was 3.48 µM (inactive) and the GI50 (HT-29) was 0.998 µM (active). For the same molecule, the GI50 (HOP-92) was > 100 µM (inactive), the GI50 (KM12) was 2.06 µM (inactive) and the GI50 (Hs-578T) was 0.31 µM (active). The GI50 (SK-MEL-2) was 2.37 µM (inactive), the GI50 (DMS-273) was 0.587 µM (active) and the GI50 (SW-620) was 0.701 µM (active). For the same molecule, the GI50 (RPMI-8226) was 1.48 µM (inactive), the GI50 (ACHN) was 32.3 µM (inactive) and the GI50 (Malme-3M) was 3.79 µM (inactive). The GI50 (MOLT-4) was 2.09 µM (inactive), the GI50 (COLO 205) was 2.21 µM (inactive) and the GI50 (PC-3) was 0.509 µM (active). For the same molecule, the GI50 (SK-OV-3) was 1.71 µM (inactive), the GI50 (SNB-75) was 0.771 µM (active) and the GI50 (SF-268) was 7.46 µM (inactive). For the same molecule, the GI50 (U-251) was 1.15 µM (inactive), the GI50 (RXF 631) was 4.69 µM (inactive) and the GI50 (786-0) was 3.72 µM (inactive). The GI50 (UACC-257) was 3.44 µM (inactive), the GI50 (KM-20L2) was 1.93 µM (inactive) and the GI50 (IGROV-1) was 11.1 µM (inactive). The GI50 (HCT-116) was 1.53 µM (inactive), the GI50 (NCI-H460) was 1.34 µM (inactive) and the GI50 (A498) was 1.38 µM (inactive). The GI50 (DMS-114) was 1.99 µM (inactive).
